Patent US20090075951A1, “Methods and Reagents for the Treatment of Inflammatory Disorders” (CombinatoRx, Inc., priority 2003, published 2009)
Like-named read-outs stand apart in the source and are kept apart here.

Assays:
[1] = test system: TNFα secretion from LPS stimulated white blood cells from human buffy coat; assay: TNFα secretion assay, LPS stimulation; settings: Homo sapiens, read-out: percent inhibition of TNFα secretion, LPS; for inhibition at 0.008 µM: Prednisolone 0.008 μM; for inhibition at 0.5 µM: Prednisolone 0.5 μM; for inhibition at 1 µM: Prednisolone 1 μM
Protocol: (§1) Various concentrations of each test compound were added at the time of stimulation. […] After the plate was washed with 0.1% Tween 20/PBS, an HRP-luminescent substrate was added to each well and light intensity measured using a LJL Analyst plate luminometer.

[2] = test system: TNFα secretion from PMA/ionomycin stimulated white blood cells from human buffy coat; assay: TNFα secretion assay, PMA/ionomycin stimulation
Protocol: as §1

[3] = Amoxapine μM r5-r13: 0,0.25,0.5,1,2,4,8,16,32
[4] = Clomipramine μM r5-r13: 0,0.45,0.89,1.8,3.6,7.1,14,28,57
[5] = Desipramine μM r5-r13: 0,0.5,1,2,4,8,16,32,64
[6] = Fluoxetine μM r5-r13: 0,0.23,0.45,0.9,1.8,3.6,7.2,14,29
[7] = Loxapine μM r5-r13: 0,0.35,0.7,1.4,2.8,5.6,11,22,45
[8] = Norclozapine μM r5-r13: 0,0.21,0.41,0.83,1.7,3.3,6.6,13,27
[9] = Nortriptyline μM r5-r13: 0,0.52,1,2.1,4.2,8.3,17,33,67

## C[C@]12C=CC(=O)C=C1CC[C@@H]1[C@@H]2[C@@H](O)C[C@@]2(C)[C@H]1CC[C@]2(O)C(=O)CO [Prednisolone, prednisolone]
[1]; [3]
  inhibition at 0.008 µM: 3.67%
  inhibition at 0.5 µM: 59.1%
  inhibition at 1 µM: 66.2%
[1]; [4]
  inhibition at 0.008 µM: 2.55%
  inhibition at 0.5 µM: 64.8%
  inhibition at 1 µM: 66.9%
[1]; [5]
  inhibition at 0.008 µM: 4.87%
  inhibition at 0.5 µM: 57.6%
  inhibition at 1 µM: 59.1%
[1]; [6]
  inhibition at 0.008 µM: 1.18%
  inhibition at 0.5 µM: 63.9%
  inhibition at 1 µM: 71%
[1]; [7]
  inhibition at 0.008 µM: 4.44%
  inhibition at 0.5 µM: 68.8%
  inhibition at 1 µM: 68.7%
[1]; [8]
  inhibition at 0.008 µM: 18%
  inhibition at 0.5 µM: 79%
  inhibition at 1 µM: 83%
[1]; [9]
  inhibition at 0.008 µM: 0.348%
  inhibition at 0.5 µM: 51.9%
  inhibition at 1 µM: 53.4%
[2]; read-out: inhibition of TNFα secretion, Prednisolone 10 nM, Desipramine nM: 0, 50, 200, 799, 3197, 13000
  inhibition at 0.01 µM: -0.66%
[2]; read-out: inhibition of TNFα secretion, Prednisolone 10 nM, Imipramine nM: 0, 99, 394, 1578, 6311, 25000
  inhibition at 0.01 µM: 0.037%
[2]; read-out: inhibition of TNFα secretion, Prednisolone 10 nM, Nortriptyline nM: 0, 52, 208, 834, 3336, 13000
  inhibition at 0.01 µM: 4.27%
[2]; read-out: inhibition of TNFα secretion, Prednisolone 10 nM, Protriptyline nM: 0, 52, 208, 834, 3336, 13000
  inhibition at 0.01 µM: 0.0342%
[2]; read-out: inhibition of TNFα secretion, Prednisolone 42 nM, Desipramine nM: 0, 50, 200, 799, 3197, 13000
  inhibition at […]: 3.62%
[2]; read-out: inhibition of TNFα secretion, Prednisolone 42 nM, Imipramine nM: 0, 99, 394, 1578, 6311, 25000
  inhibition at […]: 5.58%
[2]; read-out: inhibition of TNFα secretion, Prednisolone 42 nM, Nortriptyline nM: 0, 52, 208, 834, 3336, 13000
  inhibition at […]: 7.41%
[2]; read-out: inhibition of TNFα secretion, Prednisolone 2656 nM, Desipramine nM: 0, 50, 200, 799, 3197, 13000
  inhibition at 2.656 µM: 38.8%
[2]; read-out: inhibition of TNFα secretion, Prednisolone 2656 nM, Imipramine nM: 0, 99, 394, 1578, 6311, 25000
  inhibition at 2.656 µM: 40.5%
[2]; read-out: inhibition of TNFα secretion, Prednisolone 2656 nM, Nortriptyline nM: 0, 52, 208, 834, 3336, 13000
  inhibition at 2.656 µM: 38.3%
[2]; read-out: inhibition of TNFα secretion, Prednisolone 2656 nM, Protriptyline nM: 0, 52, 208, 834, 3336, 13000
  inhibition at 2.656 µM: 45.2%
[2]; read-out: percent inhibition of TNFα secretion, PMA/ionomycin, Prednisolone 0.008 μM, Amoxapine μM r5-r13: 0,0.25,0.5,1,2,4,8,16,32
  inhibition at 0.008 µM: -2.11%
[2]; read-out: percent inhibition of TNFα secretion, PMA/ionomycin, Prednisolone 0.008 μM, Norclozapine μM r5-r13: 0,0.21,0.41,0.83,1.7,3.3,6.6,13,27
  inhibition at 0.008 µM: 17%
[2]; read-out: percent inhibition of TNFα secretion, PMA/ionomycin, Prednisolone 0.008 μM, Nortriptyline μM r5-r13: 0,0.52,1,2.1,4.2,8.3,17,33,67
  inhibition at 0.008 µM: 9.54%
[2]; read-out: percent inhibition of TNFα secretion, PMA/ionomycin, Prednisolone 0.5 μM, Amoxapine μM r5-r13: 0,0.25,0.5,1,2,4,8,16,32
  inhibition at 0.5 µM: 25%
[2]; read-out: percent inhibition of TNFα secretion, PMA/ionomycin, Prednisolone 0.5 μM, Norclozapine μM r5-r13: 0,0.21,0.41,0.83,1.7,3.3,6.6,13,27
  inhibition at 0.5 µM: 44%
[2]; read-out: percent inhibition of TNFα secretion, PMA/ionomycin, Prednisolone 0.5 μM, Nortriptyline μM r5-r13: 0,0.52,1,2.1,4.2,8.3,17,33,67
  inhibition at 0.5 µM: 29.2%
[2]; read-out: percent inhibition of TNFα secretion, PMA/ionomycin, Prednisolone 1 μM, Amoxapine μM r5-r13: 0,0.25,0.5,1,2,4,8,16,32
  inhibition at 1 µM: 29.5%
[2]; read-out: percent inhibition of TNFα secretion, PMA/ionomycin, Prednisolone 1 μM, Nortriptyline μM r5-r13: 0,0.52,1,2.1,4.2,8.3,17,33,67
  inhibition at 1 µM: 38.5%
[2]; read-out: percent inhibition of TNFα secretion, Prednisolone 0.008 μM, Clomipramine μM 0, 0.45, 0.89, 1.8, 3.6, 7.1, 14, 28, 57
  inhibition at 0.008 µM: 7.57%
[2]; read-out: percent inhibition of TNFα secretion, Prednisolone 0.008 μM, Desipramine μM 0, 0.5, 1, 2, 4, 8, 16, 32, 64
  inhibition at 0.008 µM: 3.11%
[2]; read-out: percent inhibition of TNFα secretion, Prednisolone 0.008 μM, Fluoxetine μM by grid row: r5 0, r6 0.23, r7 0.45, r8 0.9, r9 1.8, r10 3.6, r11 7.2, r12 14, r13 29
  inhibition at 0.008 µM: 6.63%
[2]; read-out: percent inhibition of TNFα secretion, Prednisolone 0.008 μM, Loxapine μM 0, 0.35, 0.7, 1.4, 2.8, 5.6, 11, 22, 45
  inhibition at 0.008 µM: 3.36%
[2]; read-out: percent inhibition of TNFα secretion, Prednisolone 10 nM, Amitriptyline nM: 0, 50, 199, 796, 3186, 13000
  inhibition at 0.01 µM: -1.26%
[2]; read-out: percent inhibition of TNFα secretion, Prednisolone 10 nM, Amoxapine nM: 0, 12, 50, 199, 797, 3187
  inhibition at 0.01 µM: 1.28%
[2]; read-out: percent inhibition of TNFα secretion, Prednisolone 10 nM, Clomipramine nM: 0, 45, 178, 712, 2848, 11000
  inhibition at 0.01 µM: 0.29%
[2]; read-out: percent inhibition of TNFα secretion, Prednisolone 42 nM, Amitriptyline nM: 0, 50, 199, 796, 3186, 13000
  inhibition at […]: 7.27%
[2]; read-out: percent inhibition of TNFα secretion, Prednisolone 42 nM, Amoxapine nM: 0, 12, 50, 199, 797, 3187
  inhibition at […]: 7.71%
[2]; read-out: percent inhibition of TNFα secretion, Prednisolone 42 nM, Clomipramine nM: 0, 45, 178, 712, 2848, 11000
  inhibition at […]: 6.83%
[2]; read-out: percent inhibition of TNFα secretion, Prednisolone 0.5 μM, Clomipramine μM 0, 0.45, 0.89, 1.8, 3.6, 7.1, 14, 28, 57
  inhibition at 0.5 µM: 33.4%
[2]; read-out: percent inhibition of TNFα secretion, Prednisolone 0.5 μM, Desipramine μM 0, 0.5, 1, 2, 4, 8, 16, 32, 64
  inhibition at 0.5 µM: 32.6%
[2]; read-out: percent inhibition of TNFα secretion, Prednisolone 0.5 μM, Fluoxetine μM by grid row: r5 0, r6 0.23, r7 0.45, r8 0.9, r9 1.8, r10 3.6, r11 7.2, r12 14, r13 29
  inhibition at 0.5 µM: 39.3%
[2]; read-out: percent inhibition of TNFα secretion, Prednisolone 0.5 μM, Loxapine μM 0, 0.35, 0.7, 1.4, 2.8, 5.6, 11, 22, 45
  inhibition at 0.5 µM: 31%
[2]; read-out: percent inhibition of TNFα secretion, Prednisolone 1 μM, Clomipramine μM 0, 0.45, 0.89, 1.8, 3.6, 7.1, 14, 28, 57
  inhibition at 1 µM: 37.5%
[2]; read-out: percent inhibition of TNFα secretion, Prednisolone 1 μM, Desipramine μM 0, 0.5, 1, 2, 4, 8, 16, 32, 64
  inhibition at 1 µM: 35.2%
[2]; read-out: percent inhibition of TNFα secretion, Prednisolone 1 μM, Fluoxetine μM by grid row: r5 0, r6 0.23, r7 0.45, r8 0.9, r9 1.8, r10 3.6, r11 7.2, r12 14, r13 29
  inhibition at 1 µM: 30.6%
[2]; read-out: percent inhibition of TNFα secretion, Prednisolone 1 μM, Loxapine μM 0, 0.35, 0.7, 1.4, 2.8, 5.6, 11, 22, 45
  inhibition at 1 µM: 34.8%
[2]; read-out: percent inhibition of TNFα secretion, Prednisolone 2656 nM, Amitriptyline nM: 0, 50, 199, 796, 3186, 13000
  inhibition at 2.656 µM: 41.6%
[2]; read-out: percent inhibition of TNFα secretion, Prednisolone 2656 nM, Amoxapine nM: 0, 12, 50, 199, 797, 3187
  inhibition at 2.656 µM: 39%
[2]; read-out: percent inhibition of TNFα secretion, Prednisolone 2656 nM, Clomipramine nM: 0, 45, 178, 712, 2848, 11000
  inhibition at 2.656 µM: 42.1%
